Source: patent US5516784A, “Anti-HIV (AIDS) agents” (Schering Corporation, priority 1994, dated 1996)

Target: T1, HIV1 protease (Human immunodeficiency virus type 1 group M subtype B, UniProt P04585)
Assay: Test 3: inhibition of proteolytic activity of HIV-1 protease by scintillation proximity assay (SPA)
Format: biochemical
Details: IC50 >500 nM; read-out: Enzyme Assays (SPA) % inhibition
Text: TEST 3-INHIBITION OF PROTEOLYTIC ACTIVITY OF HIV-1-PROTEASE AS DETERMINED BY SCINTILLATION […] ASSAY (SPA).
This is an alternative assay to test #1 and is used to determine the ability of compounds to inhibit the HIV1 protease activity. The SPA assay for HIV1 protease has been developed by Amersham Corporation, Arlington Heights, Ill., and is available for commercial use. In this system the substrate for HIV1 protease, AcN-(I^125)[…]SPA bead, is cleaved by the HIV1 protease at the Phe-Phe bond releasing the I^125 -labelled peptide fragment from the SPA bead. This event causes removal of detectable signal from the microsphere bead indicated by reduction in radioactivity (measured in CPM), which is proportional to the proteolytic activity. The substrate, and the HIV 1 protease were incubated in presence of synthetic compound in various dilutions at room temperature for 40 minutes, and the concentration of the compound required to inhibit the proteolytic activity by 50% (IC50) was determined.

Row | SMILES | inhibition at 0.5 µM
1 | CC(C)(C)NC(=O)c1ccccc1OC[C@H](O)[C@H](Cc1ccccc1)NC(=O)[C@H](CC(N)=O)NC(=O)c1nc2ccccc2nc1O [Compound 63] | 35%
2 | CC(C)(C)NC(=O)c1ccccc1OC[C@@H](O)[C@H](Cc1ccccc1)NC(=O)[C@H](CC(N)=O)NC(=O)c1cnc2nc(N)nc(O)c2n1 [Compound 68] | 36%
3 | CC(C)(C)NC(=O)c1ccccc1OC[C@@H](O)[C@H](Cc1ccccc1)NC(=O)[C@H](CC(N)=O)NC(=O)c1nc2ccccc2nc1O [Compound 64] | 36%
4 | CCC(C)[C@H](NC(=O)c1ccc2ccccc2n1)C(=O)N[C@@H](Cc1ccccc1)[C@H](O)COc1ccccc1C(=O)NC(C)(C)C (stereo partly shown) [Compound 38] | 46%

Same assay, conditions: SPA; room temperature, 40 minutes; read-out: Enzyme Assays (SPA) IC50

Row | SMILES | IC50
5 | CCC(C)C(NC(=O)c1ccc2ccccc2n1)C(=O)N[C@@H](Cc1ccccc1)[C@H](O)CSc1ccccc1C(=O)NC(C)(C)C (stereo partly shown) [Compound 39] | > 200 nM
6 | CC(C)(C)NC(=O)c1ccc(SC[C@@H](O)[C@H](Cc2ccccc2)NC(=O)[C@H](CC(N)=O)NC(=O)c2ccc3ccccc3n2)cc1 [Compound 24] | > 200 nM
7 | NC(=O)C[C@H](NC(=O)c1ccc2ccccc2n1)C(=O)N[C@@H](Cc1ccccc1)[C@H](O)CSC1CCCC1C(=O)Nc1ccccc1 (stereo partly shown) [Compound 21] | > 200 nM
8 | CC(C)(C)NC(=O)c1ccccc1SC[C@@H](O)[C@H](Cc1ccccc1)NC(=O)[C@H](Cc1ccccc1)NC(=O)c1ccc2ccccc2n1 [Compound 34] | > 200 nM
9 | CCC(C)[C@H](NC(=O)c1ccc2ccccc2n1)C(=O)N[C@@H](Cc1ccccc1)[C@H](O)CSc1ccccc1C(=O)NC(C)(C)C (stereo partly shown) [Compound 36] | 132 nM
10 | CC(C)(C)NC(=O)c1ccccc1OC[C@@H](O)[C@H](CCc1ccccc1)NC(=O)[C@H](CC(N)=O)NC(=O)c1ccc2ccccc2n1 [Compound 76] | > 500 nM
11 | CN(C)C(=O)C[C@H](NC(=O)c1ccc2ccccc2n1)C(=O)N[C@@H](Cc1ccccc1)[C@H](O)CSc1ccccc1C(=O)NC(C)(C)C [Compound 42] | > 200 nM
12 | CC(C)(C)NC(=O)c1ccccc1OC[C@@H](O)[C@H](Cc1ccccc1)NC(=O)[C@H](CC(N)=O)NC(=O)c1cnc2ccccc2n1 [Compound 60] | 48 nM
13 | CC(C)(C)NC(=O)c1ccc(SC[C@H](O)[C@H](Cc2ccccc2)NC(=O)[C@H](CC(N)=O)NC(=O)c2ccc3ccccc3n2)cc1 [Compound 23] | > 200 nM
14 | CC(C)(C)NC(=O)c1cccc(SC[C@H](O)[C@H](Cc2ccccc2)NC(=O)[C@H](CC(N)=O)NC(=O)c2ccc3ccccc3n2)c1 [Compound 25] | > 200 nM
15 | CC(C)(C)NC(=O)c1c(OC[C@@H](O)[C@H](Cc2ccccc2)NC(=O)[C@H](CC(N)=O)NC(=O)c2ccc3ccccc3n2)ccc2ccccc12 [Compound 10] | 110 nM
16 | CC(C)(C)NC(=O)c1ccccc1OC[C@H](O)[C@H](Cc1ccccc1)NC(=O)[C@H](CC(N)=O)NC(=O)c1nc2ccccc2nc1O [Compound 63] | > 500 nM
17 | CC(C)(C)NC(=O)c1ccccc1OC[C@@H](O)[C@H](Cc1ccccc1)NC(=O)[C@H](CC(N)=O)NC(=O)c1cnnc2ccccc12 [Compound 66] | 124 nM
18 | NC(=O)C[C@H](NC(=O)c1ccc2ccccc2n1)C(=O)N[C@@H](Cc1ccccc1)[C@H](O)CSC1CCCC1C(=O)Nc1ccccc1 (single isomer, unassigned) [Compound 17] | 200 nM
19 | CC(C)(C)NC(=O)c1ccccc1OC[C@@H](O)[C@H](Cc1ccccc1)NC(=O)[C@H](CC(N)=O)NC(=O)c1cnc2nc(N)nc(O)c2n1 [Compound 68] | > 500 nM
20 | CCC(C)[C@H](NC(=O)OC(C)(C)C)C(=O)N[C@@H](Cc1ccccc1)[C@H](O)CSc1ccccc1C(=O)NC(C)(C)C (stereo partly shown) [IN 7] | > 500 nM

Row | SMILES | IC50
21 | CC(C)(C)NC(=O)c1ccccc1OC[C@@H](O)[C@H](Cc1ccccc1)NC(=O)[C@H](CC(N)=O)NC(=O)c1nc2ccccc2nc1O [Compound 64] | > 500 nM
22 | CC(C)(C)NC(=O)CCSC[C@@H](O)[C@H](Cc1ccccc1)NC(=O)[C@H](CC(N)=O)NC(=O)c1ccc2ccccc2n1 [Compound 28] | > 200 nM
23 | NC(=O)C[C@H](NC(=O)c1ccc2ccccc2n1)C(=O)N[C@@H](Cc1ccccc1)[C@@H](O)CSc1ccccc1C(=O)NC12CC3CC(CC(C3)C1)C2 [Compound 29] | > 200 nM
24 | CC(C)(C)NC(=O)c1ccc2ccccc2c1OC[C@@H](O)[C@H](Cc1ccccc1)NC(=O)[C@H](CC(N)=O)NC(=O)c1ccc2ccccc2n1 [Compound 12] | 230 nM
25 | NC(=O)C[C@H](NC(=O)c1ccc2ccccc2n1)C(=O)N[C@@H](Cc1ccccc1)[C@H](O)CSC1CCCC1C(=O)Nc1ccccc1 (single isomer, unassigned) [Compound 15] | > 200 nM
26 | CC(C)(C)NC(=O)c1ccccc1OC[C@H](O)[C@H](Cc1ccccc1)NC(=O)[C@H](CC(N)=O)NC(=O)c1cnnc2ccccc12 [Compound 65] | 500 nM
27 | CC(C)(C)NC(=O)c1cc2ccccc2cc1OC[C@@H](O)[C@H](Cc1ccccc1)NC(=O)[C@H](CC(N)=O)NC(=O)c1ccc2ccccc2n1 [Compound 11] | 280 nM
28 | CC(C)(C)NC(=O)c1cccnc1OC[C@H](O)[C@H](Cc1ccccc1)NC(=O)[C@H](CC(N)=O)NC(=O)c1ccc2ccccc2n1 [Compound 6] | > 500 nM
29 | Cc1c(C)c2c(c(C)c1O)CCC(C)(C(=O)N[C@@H](CC(N)=O)C(=O)N[C@@H](Cc1ccccc1)[C@@H](O)COc1ccccc1C(=O)NC(C)(C)C)O2 (stereo partly shown) [Compound 71] | 245 nM
30 | CCC(C)[C@H](NC(=O)c1ccc2ccccc2n1)C(=O)N[C@@H](Cc1ccccc1)[C@H](O)COc1ccccc1C(=O)NC(C)(C)C (stereo partly shown) [Compound 38] | > 500 nM
31 | NC(=O)C[C@H](NC(=O)c1ccc2ccccc2n1)C(=O)N[C@@H](Cc1ccccc1)[C@@H](O)CSc1nc2ccccc2[nH]1 [Compound 22] | > 200 nM
32 | NC(=O)C[C@H](NC(=O)c1ccc2ccccc2n1)C(=O)N[C@@H](Cc1ccccc1)[C@@H](O)CSC1CCCC1C(=O)Nc1ccccc1 (stereo partly shown) [Compound 14] | > 200 nM
33 | CC(C)(C)NC(=O)c1ccccc1OC[C@H](O)[C@H](Cc1ccccc1)NC(=O)[C@H](CC(N)=O)NC(=O)c1cc(O)c2ccccc2n1 [Compound 61] | 410 nM
34 | CC(C)(C)NC(=O)c1ccccc1OC[C@@H](O)[C@H](Cc1ccccc1)NC(=O)[C@H](CC(N)=O)NC(=O)OCc1ccccc1 [IN 8] | 125 nM
35 | CC(C)(C)NC(=O)c1cccc(SC[C@@H](O)[C@H](Cc2ccccc2)NC(=O)[C@H](CC(N)=O)NC(=O)c2ccc3ccccc3n2)c1 [Compound 26] | > 200 nM

Same assay, conditions: read-out: Enzyme Assays (SPA) IC50

Row | SMILES | IC50
36 | CC(C)(C)NC(=O)c1ccccc1OC[C@H](O)[C@H](Cc1ccccc1)NC(=O)[C@H](CC(N)=O)NC(=O)c1ccc2c(c1)C(=O)c1ccccc1C2=O [Compound 69] | 84 nM
37 | CC(C)(C)NC(=O)c1ccccc1OC[C@@H](O)[C@H](Cc1ccccc1)NC(=O)[C@H](CC(N)=O)NC(=O)c1ccc2c(c1)C(=O)c1ccccc1C2=O [Compound 70] | 55 nM
38 | CC(C)(C)NC(=O)c1ccccc1OC[C@H](O)[C@H](Cc1ccccc1)NC(=O)[C@H](CC(N)=O)NS(=O)(=O)c1ccc2ccccc2c1 [Compound 73] | 425 nM

Target: T1, HIV1 protease
Assay: Test 1: inhibition of proteolytic activity of HIV-1 protease (HPLC)
Format: biochemical
Design: proteolytic activity of HIV-1 protease
Details: HPLC; HIV Substrate III; read-out: Enzyme Assays (HPLC) IC50
Procedure: TEST I-INHIBITION OF PROTEOLYTIC ACTIVITY OF HIV-1-PROTEASE
The ability of compounds of the invention to inhibit the proteolytic activity of HIV-1 protease was determined by using the method of Louis, et al., Biochem. Biophys. Res. Comm. 159:87-94, (1989), which is herein incorporated by reference. In using the method of Louis et al., HIV Substrate III, His-Lys-Ala-Arg-VaI-Leu-pNO2 Phe-Glu-Ala-Nle-Ser-NH2 purchased from Bachem Bioscience, Inc. Philadelphia, Pa. was used in place of the nonapeptide substrate […]amide.

Row | SMILES | IC50
39 | CC(C)(C)NC(=O)c1ccccc1SC[C@H](O)[C@H](Cc1ccccc1)NC(=O)[C@H](CC(N)=O)NC(=O)c1cccnc1O [Compound 58] | > 100 nM
40 | CCCCNC(=O)c1ccccc1S(=O)(=O)C[C@H](O)[C@H](Cc1ccccc1)NC(=O)[C@H](CC(N)=O)NC(=O)c1ccc2ccccc2n1 [Compound 9] | > 500 nM
41 | CCn1cc(C(=O)N[C@@H](CC(N)=O)C(=O)N[C@@H](Cc2ccccc2)[C@@H](O)CSc2ccccc2C(=O)NC(C)(C)C)c(=O)c2ccc(C)nc21 [Compound 53] | > 100 nM
42 | CC(C)(C)NC(=O)CCSC[C@H](O)[C@H](Cc1ccccc1)NC(=O)[C@H](CC(N)=O)NC(=O)c1ccc2ccccc2n1 [Compound 27] | > 500 nM
43 | CC(C)(C)NC(=O)c1ccccc1OC[C@@H](O)[C@@H](NC(=O)[C@H](CC(N)=O)NC(=O)c1ccc2ccccc2n1)c1ccccc1 [Compound 75] | > 500 nM
